Values of other authors as cited in patent US20230047788A1, “COMPOSITIONS COMPRISING 5-CHOLESTEN-3, 25-DIOL, 3-SULFATE (25HC3S) OR PHARMACEUTICALLY ACCEPTABLE SALT THEREOF AND AT LEAST ONE CYCLIC OLIGOSACCHARIDE” (Virginia Commonwealth University, priority 2016, published 2023).

Conditions: at 25°C; cited from earlier work

SMILES: CC(O)COC[C@H]1O[C@@H]2O[C@H]3[C@H](O)[C@@H](O)[C@@H](O[C@H]4[C@H](O)[C@@H](O)[C@@H](O[C@H]5[C@H](O)[C@@H](O)[C@@H](O[C@H]6[C@H](O)[C@@H](O)[C@@H](O[C@H]7[C@H](O)[C@@H](O)[C@@H](O[C@H]8[C@H](O)[C@@H](O)[C@@H](O[C@H]1[C@H](O)[C@H]2O)O[C@@H]8COCC(C)O)O[C@@H]7COCC(C)O)O[C@@H]6COCC(C)O)O[C@@H]5COCC(C)O)O[C@@H]4COCC(C)O)O[C@@H]3COCC(C)O (stereo partly drawn) [HP-β-CD, hydroxypropyl β-cyclodextrin]
- solubility in water: 50 % w/v
